Measurements: patent US20140243348A1, “COMPOSITIONS AND METHODS FOR TREATING HERPES VIRUSES” (President and Fellows of Harvard College, priority 2011, published 2014)

Tests used:
HSV-1 KOS virus = experiment: Screen of 118-D-24 derivatives on HSV-1 KOS replication in Hep2 cells; type: cell-based; settings: 250 μM, MOI=0.01, 48 hours, FIG. 12
Description: To evaluate the effects of 118-D-24 derivatives on HSV replication, a panel of derivatives (Table 1) (Zhao, X. Z., 2008, J. Med. Chem., vol. 51, pages 251-259) were screened for their ability to inhibit HSV-1 KOS virus replication in Hep2 cells. Hep2 cells were plated in a 6-well plate and incubated overnight to reach confluency. The cells were then inoculated with HSV-1 KOS virus at MOI=0.01 for 1 hour. Following inoculation, the virus inoculum was replaced with DMEV medium containing 118-D-24 or a derivative of 118-D-24. After 48 hours, samples were harvested by adding an equal volume of 10% non-fat milk and immediately frozen at −80° C. Samples were freeze-thawed three times to rupture the cell membranes and allow the release of virus. Virus titers were determined by titration on Vero cells. The 100% yield represents the viral titer in samples without drug treatment. […] Hep2 cells or (FIG. 14A) or HFF cells (FIG. 14B) were infected with HSV-1 virus (KOS strain) at MOI of 0.01. Samples were then processed and percent yield remaining values were calculated. EC50 and EC90 values were calculated using nonlinear regression curve fit with a variable slope. GaraphPad Prism 5 software was used for all analyses. (FIG. 14C) Cytotoxicity of XZ45 on the viability of Hep2 cells during a 48-hour incubation period was evaluated using the Promega cell titer glo assay, as described by the manufacturer. The reported values are percent […] remaining relative to the […] from cells grown in media containing DMSO alone. CC50 value was determined as described above. FIGS. 14A and 14B show the effects of XZ45 on HSV-1 replication in Hep2 cells (14A) and normal human foreskin fibroblasts (14B) and the cytotoxicity of XZ45 in Hep2 cells is shown in FIG. 14C.

[1] = tested on: HSV-1 strain KOS, strain F; experiment: XZ45 viral yield assay, HSV-1; type: cell-based; settings: Hep2 or HFF cells, 48 hours; FIG. 15
Description: (§1) Hep2 cells were infected with HSV-1 strain KOS, strain F, or HSV-2 strain G at MOI of 0.01. The infected cells were grown in media containing increasing concentrations of XZ45 or DMSO for 48 hours. Samples were harvested and viral yield was determined by plaque assay on Vero cells. The reported values are percent yield remaining relative to cells grown in media containing DMSO alone (FIG. 15A). Hep2 cells (FIG. 15B) or HFF cells (FIG. 15C) were infected with HSV-1 virus (KOS strain) at MOI of 10 or 0.01 or with human cytomegalovirus (HCMV) (FIG. 16). Samples were then processed and percent yield remaining values were calculated as describe above.

HSV-2 strain G = experiment: XZ45 viral yield assay, HSV-2; type: cell-based; settings: Hep2 cells, MOI 0.01, 48 hours; FIG. 15A
Description: as §1

[2] = tested on: human cytomegalovirus (HCMV); experiment: XZ45 viral yield assay, HCMV; type: cell-based; settings: FIG. 16
Description: as §1

HSV-1 KOS viral DNA = experiment: XZ45 viral DNA synthesis (real-time PCR) in Hep2 cells; type: cell-based; settings: 10 μM XZ45, MOI=10, FIG. 17A
Description: (§2) Hep2 cells were infected with HSV-1 KOS at an MOI=10 in the presence or absence of 10 μM XZ45. Total DNA was harvested at the times indicated, and viral DNA levels in each sample were determined by real-time PCR and were normalized to the levels of cellular DNA. […] Hep2 cells were infected with HSV-1 KOS in the presence or absence of 10 μM XZ45. Lysates were prepared for immunoblotting at the indicated times. Polypeptides were resolved by SDS-PAGE, transferred to a PVDF membrane, and probed for representative immediate-early (ICP27), early (ICP8), and late (gC) gene products.

[3] = tested on: HSV-1 KOS late (gC) gene products; experiment: XZ45 viral gene expression by immunoblotting in Hep2 cells; type: cell-based; settings: 10 μM XZ45, FIG. 17B
Description: as §2

ICP8 [4] = target: T1, ICP8 (Human herpesvirus 1, UniProt P17470); experiment: ssDNA binding by ICP8 (EMSA, ssDNA beads pull down, ssDNA-cellulose); settings: three assays; FIG. 18A-18C
Description: The effect of XZ45 on ssDNA binding by ICP8 was measured by EMSA assay with purified ICP8 protein using ^32P-labled polynucleotide ssDNA probe (FIG. 18A); ssDNA beads pull down assay (FIG. 18B), and ICP8 binding to ssDNA-cellulose (FIG. 18C).

HSV recombination = HSV recombination in Hep2 cells coinfected with 8LacZ and hr99; type: cell-based; settings: 20 hours after infection, compared to PAA, FIG. 19
Description: To test the effect of XZ45 on HSV recombination during viral replication, 8LacZ (deletion of ul29) and hr99 (deletion of ul5) virus were used to coinfect Hep2 cells in the presence of XZ45 or PAA. At 20 hours after infection, samples were harvested and progeny virus were tittered on Vero cells and V529 cells to determine the viral titer of recombinated virus and total virus. The recombination rate reflects the ratio between the titer of recombinated virus and total virus.

ICP8 [5] = target: T1, ICP8; experiment: D-loop assay of ICP8 mediated recombination; type: biochemical; settings: 0, 10, 20, or 40 μM XZ45; FIG. 20
Description: To further test the effect of XZ45 on ICP8 mediated recombination a D-loop assay was used. A double stranded DNA probe was mixed with a single stranded DNA oligonucleotide in the presence or absence of ICP8 with 0, 10, 20, or 40 μM XZ45. Following incubation, the reaction products were analyzed by electrophoresis through a native gel.

wild type HSV-1 = experiment: HSV yield reduction assay (plaque assay) with HIV integrase inhibitors; type: cell-based; settings: 100 μM; FIG. 6
Description: At 48 hours post infection, viral yield samples were harvested and the yield was determined by plaque assay. Values are presented as the percent yield remaining, relative to the DMSO vehicle control treatment.
Cells were infected with wild type HSV-1 at a multiplicity of infection of 0.01 plaque-forming units per cell and treated with the indicated concentration of the HIV integrase inhibitor specified. At 48 hours post infection, viral yield samples were harvested and the yield was determined by plaque assay. Values are presented as the percent yield remaining, relative to the DMSO vehicle control treatment.

HCMV UL89 = HCMV UL89 (Human cytomegalovirus, UniProt P16732); settings: cited from earlier work
Chain of HCMV UL89 (P16732 whole entry): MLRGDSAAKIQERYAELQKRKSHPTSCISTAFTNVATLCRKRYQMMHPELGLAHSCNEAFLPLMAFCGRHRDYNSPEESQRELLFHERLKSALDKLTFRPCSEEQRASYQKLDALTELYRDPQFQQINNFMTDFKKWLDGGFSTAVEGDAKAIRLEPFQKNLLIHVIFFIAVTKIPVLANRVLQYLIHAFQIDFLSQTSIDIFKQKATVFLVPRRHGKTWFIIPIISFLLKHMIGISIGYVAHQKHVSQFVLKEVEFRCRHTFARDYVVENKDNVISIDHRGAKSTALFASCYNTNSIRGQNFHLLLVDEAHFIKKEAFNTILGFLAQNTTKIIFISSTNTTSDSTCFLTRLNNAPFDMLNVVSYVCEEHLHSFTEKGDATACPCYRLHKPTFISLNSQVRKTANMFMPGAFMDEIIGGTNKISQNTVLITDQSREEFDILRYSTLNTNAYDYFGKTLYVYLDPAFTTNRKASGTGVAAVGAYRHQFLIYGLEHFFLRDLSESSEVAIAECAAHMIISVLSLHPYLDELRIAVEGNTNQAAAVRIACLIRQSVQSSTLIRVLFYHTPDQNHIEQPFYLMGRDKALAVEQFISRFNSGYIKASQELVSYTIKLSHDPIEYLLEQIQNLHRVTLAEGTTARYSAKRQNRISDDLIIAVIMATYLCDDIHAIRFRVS

T1 sequence (P17470 whole entry): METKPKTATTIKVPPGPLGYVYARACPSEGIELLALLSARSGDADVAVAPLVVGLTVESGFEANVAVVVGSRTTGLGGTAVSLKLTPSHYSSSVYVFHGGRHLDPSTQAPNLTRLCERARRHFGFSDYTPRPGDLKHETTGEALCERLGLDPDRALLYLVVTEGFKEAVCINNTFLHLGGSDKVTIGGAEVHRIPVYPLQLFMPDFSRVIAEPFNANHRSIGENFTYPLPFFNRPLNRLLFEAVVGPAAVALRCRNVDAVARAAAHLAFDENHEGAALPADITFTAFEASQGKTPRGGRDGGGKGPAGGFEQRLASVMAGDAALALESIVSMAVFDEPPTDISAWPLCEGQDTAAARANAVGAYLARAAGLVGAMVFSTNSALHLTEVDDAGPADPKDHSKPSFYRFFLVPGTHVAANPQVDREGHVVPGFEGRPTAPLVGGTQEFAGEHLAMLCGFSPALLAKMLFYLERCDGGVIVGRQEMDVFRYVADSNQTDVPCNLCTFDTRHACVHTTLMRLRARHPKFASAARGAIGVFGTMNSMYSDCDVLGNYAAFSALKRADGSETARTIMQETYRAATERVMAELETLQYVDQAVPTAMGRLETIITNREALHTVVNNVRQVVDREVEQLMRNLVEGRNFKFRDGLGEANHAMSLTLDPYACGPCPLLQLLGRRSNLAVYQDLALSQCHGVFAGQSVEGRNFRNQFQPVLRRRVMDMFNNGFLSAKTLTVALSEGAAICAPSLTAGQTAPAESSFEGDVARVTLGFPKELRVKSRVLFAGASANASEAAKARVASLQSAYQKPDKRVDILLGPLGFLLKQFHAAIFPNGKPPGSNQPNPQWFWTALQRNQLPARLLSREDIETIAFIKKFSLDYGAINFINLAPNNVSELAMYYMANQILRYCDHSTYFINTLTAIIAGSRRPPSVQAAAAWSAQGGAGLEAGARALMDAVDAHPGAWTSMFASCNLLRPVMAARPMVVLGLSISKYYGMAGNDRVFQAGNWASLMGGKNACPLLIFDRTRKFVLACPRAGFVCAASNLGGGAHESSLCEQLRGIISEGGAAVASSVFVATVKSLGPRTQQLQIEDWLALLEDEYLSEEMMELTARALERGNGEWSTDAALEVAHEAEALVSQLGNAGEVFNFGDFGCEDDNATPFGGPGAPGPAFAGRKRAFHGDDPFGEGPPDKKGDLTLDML

Q: Which “viral yield (in words)” value (HSV-1 KOS virus) does the source give for `O=C(NN1Cc2ccc(O)c(O)c2C1=O)c1cccc(O)c1O` [XZ49] here?
A: Its value is “significant reductions in viral yield”.

Q: For `O=C(NNC(=O)c1cccc(O)c1O)c1cccc(O)c1O` [XZ15], which “viral yield (in words)” value (HSV-1 KOS virus) is on record?
A: The value was “significant reductions in viral yield”.

Q: With `O=C(NNC(=O)c1cccc(O)c1O)c1ccccc1O` [XZ45] as the molecule, how does the “viral yield (in words)” value (HSV-1 KOS virus) read?
A: Its value is “significant reductions in viral yield”.

Q: What about the “replication of HSV-1” value [1] of the same molecule?
A: Its value is “inhibits the replication”.

Q: What about the “replication of HSV-2” value (HSV-2 strain G) of the same molecule?
A: Its value is “inhibits the replication”.

Q: And the “replication of HCMV” value [2]?
A: The value was “inhibits the replication”.

Q: What about the “viral DNA synthesis” value (HSV-1 KOS viral DNA) of the same molecule?
A: The value was “Inhibits Viral DNA Synthesis”.

Q: What about the “expression of the late gene (gC) products” value [3] of the same molecule?
A: Its value is “significantly inhibited”.

Q: What about the “ssDNA binding by ICP8” value (ICP8 [4]) of the same molecule?
A: The value was “does not affect ssDNA binding”.

Q: What about the “HSV recombination (recombination rate)” value (HSV recombination) of the same molecule?
A: Its value is “significantly inhibited HSV recombination”.

Q: What about the “ICP8 mediated formation of D-loops” value (ICP8 [5]) of the same molecule?
A: Its value is “inhibited the ICP8 mediated formation of D-loops”.

Q: With `Cc1nnc(C(=O)NC(C)(C)c2nc(C(=O)NCc3ccc(F)cc3)c(O)c(=O)n2C)o1` [Raltegravir] as the molecule, how does the “reduction of HSV viral yield” value (wild type HSV-1) read?
A: Its value is “greater than 96%”.

Q: And the “HCMV UL89 activity” value (HCMV UL89)?
A: The value was “inhibit HCMV UL89 activity”.

Q: Which “viral yield (in words)” value (HSV-1 KOS virus) does the source give for `[N-]=[N+]=NCc1cccc(CN2Cc3ccc(O)c(O)c3C2=O)c1` [XZ99] here?
A: The value was “significant reductions in viral yield”.

Q: Which “viral yield (in words)” value (HSV-1 KOS virus) does the source give for `[N-]=[N+]=NCc1cccc(CN2C(=O)c3ccc(O)c(O)c3C2=O)c1` [XZ100] here?
A: Its value is “significant reductions in viral yield”.

Q: With `O=C1c2c(ccc(O)c2O)CN1N1Cc2ccc(O)c(O)c2C1=O` [XZ48] as the molecule, how does the “viral yield (in words)” value (HSV-1 KOS virus) read?
A: The value was “significant reductions in viral yield”.

Q: With `O=C1c2c(ccc(O)c2O)CN1N1C(=O)c2ccc(O)c(O)c2C1=O` [XZ50] as the molecule, how does the “viral yield (in words)” value (HSV-1 KOS virus) read?
A: The value was “significant reductions in viral yield”.
